Results reported in patent US9006150B2, “Structural nucleic acid guided chemical synthesis” (Vipergen ApS, priority 2004, dated 2015).
“Also recorded” adds a separate entry of the source.

Experiments:
[1] = test system: 3E7 anti Leu-enkephalin monoclonal antibody; type: binding
[2] = test system: W6/32 monoclonal antibody

Substance: Tyr-Gly-Gly-Phe-Leu-DNA [R1 product]
- binding to 3E7 antibody (gel-shifted band) [1]: binding to 3E7 antibody; also recorded: specific binding
- gel-shifted band with IgG2A isotype matched negative control antibody [2]: absent

Substance: Gly-Leu-Phe-Tyr-Gly-DNA (GLFYG; DNA conjugate; printed: Gly-Leu-Phe-Tyr-Gly-) [R2 product, Structural DNA display product with scrambled Leu-enkephalin, negative control for the partitioning assay]
- binding to 3E7 antibody (gel-shifted band) [1]: does not bind to 3E7
